In patent publication US20230133761A1, “INHIBITION OF FKBP1A FOR THE TREATMENT OF TRIPLE-NEGATIVE MAMMARY CARCINOMA” (Heinrich-Heine-Universität Düsseldorf, priority 2020, published 2023):
Values belong to the compound of their own block, whether it stands above or below them.

Legend:
[1] = test system: triple-negative mammary carcinoma; experiment: Combined inhibition of FKBP1A and PIN1 in triple-negative mammary carcinoma (tumor stem cell character, apoptosis induction); assay type: cell-based; details: FKBP1A-specific siRNA and co-incubation with ATRA
FKBP1A = target: T1, FKBP1A (Homo sapiens, UniProt P62942); experiment: Anti-tumor effect on tumor stem cell and EMT markers by PROTAC-mediated FKBP1A expression reduction; assay type: cell-based
T1 construct: The cells were then washed with PBS, lysed and the expression of FKBP1A was analyzed by western blotting; endogenous in cells; host or cells: MDA-MB-231
T1 sequence (P62942 whole entry): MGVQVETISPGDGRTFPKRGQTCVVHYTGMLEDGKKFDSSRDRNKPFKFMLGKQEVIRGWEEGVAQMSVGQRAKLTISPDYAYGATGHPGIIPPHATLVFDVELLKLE

[2] = test system: endothelial and breast cancer cells; details: cited from earlier work
[3] = test system: SFRP2 and VEGF-stimulated in vitro tube formation; details: cited from earlier work
breast tumor xenograft = details: in vivo; cited from earlier work

SMILES: CC1=C(/C=C/C(C)=C/C=C/C(C)=C/C(=O)O)C(C)(C)CCC1 [ATRA, all-trans retinoic acid]
- Effect on reduction of tumor stem cell character and ability to induce apoptosis [1]: strong synergistic effect

- Anti-tumor effect on tumor stem cell and EMT markers compared to pure inhibition of the enzyme function of FKBP1A (FKBP1A): stronger anti-tumor effect
SMILES: CO[C@H]1C[C@@H]2CC[C@@H](C)[C@@](O)(O2)C(=O)C(=O)N2CCCC[C@H]2C(=O)O[C@H]([C@H](C)C[C@@H]2CC[C@@H](OCCOCc3cn(CCOCCOCCNc4cccc5c4C(=O)N(C4CCC(=O)NC4=O)C5=O)nn3)[C@H](OC)C2)CC(=O)[C@H](C)/C=C(\C)[C@@H](O)[C@@H](OC)C(=O)[C@H](C)C[C@H](C)/C=C/C=C/C=C/1C (some centres unmarked) [FKBP12 PROTAC RC32]

SMILES: C=CC[C@@H]1/C=C(\C)C[C@H](C)C[C@H](OC)[C@H]2O[C@@](O)(C(=O)C(=O)N3CCCC[C@H]3C(=O)O[C@H](/C(C)=C/[C@@H]3CC[C@@H](O)[C@H](OC)C3)[C@H](C)[C@@H](O)CC1=O)[C@H](C)C[C@@H]2OC [tacrolimus]
- Migration of endothelial and breast cancer cells [2]: inhibit the migration of endothelial and breast cancer cells
- SFRP2 and VEGF-stimulated in vitro tube formation [3]: inhibit SFRP2 and VEGF-stimulated in vitro tube formation
- Breast tumor xenograft growth (breast tumor xenograft): attenuates breast tumor xenograft growth in vivo
